Measurements reported in ChEMBL document CHEMBL1201862, “PubChem BioAssay data set” (2004).
Activity calls are given as the source filed them.

What was measured:
Estrogen receptor = biological target: T1, Estrogen receptor (Homo sapiens, UniProt P03372); test: ERα coactivator recruitment enhancers – biochemical, TR-FRET, ERα LBD, dose response (AID 737)
T1 sequence (P03372 whole entry): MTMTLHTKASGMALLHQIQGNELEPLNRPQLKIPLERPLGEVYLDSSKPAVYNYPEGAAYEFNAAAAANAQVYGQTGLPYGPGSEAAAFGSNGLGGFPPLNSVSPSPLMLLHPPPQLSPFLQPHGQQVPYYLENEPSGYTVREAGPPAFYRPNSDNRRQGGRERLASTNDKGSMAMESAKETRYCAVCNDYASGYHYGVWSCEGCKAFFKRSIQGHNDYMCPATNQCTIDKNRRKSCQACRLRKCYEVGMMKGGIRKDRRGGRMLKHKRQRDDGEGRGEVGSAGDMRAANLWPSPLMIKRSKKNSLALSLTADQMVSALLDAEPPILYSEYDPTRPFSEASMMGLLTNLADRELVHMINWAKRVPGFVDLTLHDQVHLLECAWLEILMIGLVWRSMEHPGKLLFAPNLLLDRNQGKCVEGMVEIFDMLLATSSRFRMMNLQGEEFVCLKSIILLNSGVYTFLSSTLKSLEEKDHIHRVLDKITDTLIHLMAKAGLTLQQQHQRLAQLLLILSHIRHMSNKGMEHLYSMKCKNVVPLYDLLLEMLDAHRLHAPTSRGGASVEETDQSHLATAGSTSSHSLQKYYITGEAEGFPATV

[1] = biological target: Glutathione-S-transferase (Schistosoma japonicum, UniProt Q26513); test: GST-antibody interaction or FRET quenching – biochemical, TR-FRET, artefact control for Vif-APOBEC3G degradation inhibitor project, dose response (AID 1117362); assay type: functional
Nonstructural protein 1 = Nonstructural protein 1 (Influenza A virus, UniProt Q194T2); assay type: functional, Influenza A virus (A/California/07/2009(H1N1))
cells = assay type: functional, cell-based
Protein Tat = Protein Tat (Human immunodeficiency virus type 1 group M subtype B (isolate HXB2)(HIV-1), UniProt P04608); assay type: functional;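 also: tat binding to TAR RNA read out by fluorescence polarization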
[2] = biological target: T2, Nuclear receptor subfamily 0 group B member 1 (Homo sapiens, UniProt P51843); assay type: functional, cell-based;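 also: HEK293T cells transfected with SF-1 and DAX-1 plus StAR promoter luciferase reporter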
T2 sequence (P51843 whole entry): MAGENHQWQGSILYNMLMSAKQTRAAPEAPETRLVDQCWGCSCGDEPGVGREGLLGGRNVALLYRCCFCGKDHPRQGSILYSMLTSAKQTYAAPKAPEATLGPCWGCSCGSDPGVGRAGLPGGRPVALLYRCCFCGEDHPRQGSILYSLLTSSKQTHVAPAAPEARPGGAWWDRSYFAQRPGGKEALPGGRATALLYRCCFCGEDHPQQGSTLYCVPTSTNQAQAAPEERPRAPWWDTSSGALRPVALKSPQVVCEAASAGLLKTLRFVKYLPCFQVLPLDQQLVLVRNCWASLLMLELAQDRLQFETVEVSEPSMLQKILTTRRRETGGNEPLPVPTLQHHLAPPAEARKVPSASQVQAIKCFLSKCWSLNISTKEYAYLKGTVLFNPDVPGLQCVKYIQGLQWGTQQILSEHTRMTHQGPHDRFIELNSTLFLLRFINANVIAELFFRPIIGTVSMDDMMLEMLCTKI

NADPH oxidase 1 = NADPH oxidase 1 (Homo sapiens, UniProt Q9Y5S8); assay type: functional, cell-based;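 also: Cell-based assay with luminescence read-out, IC50 derived from inhibitor dose-response curves; intracellular ROS from endogenous NOX1 in intact HT29 colon cancer cells; potency of inhibitors that lower the ROS luminescence signal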
Estrogen receptor beta [3] = biological target: T3, Estrogen receptor beta (Homo sapiens, UniProt Q92731); test: blockers of SRC-3 recruitment to ERβ – biochemical, ELISA, streptavidin-HRP readout, orthogonal assay, confirmation (AID 1060)
Estrogen receptor beta [4] = biological target: T3, Estrogen receptor beta
[5] = biological target: Solute carrier family 12 member 2/member 5 (Homo sapiens, UniProt P55011+Q9H2X9); test: KCC2 and NKCC1 inhibition by rubidium flux, cell-based, NKCC1 counter-screen (AID 1734); assay type: functional, HEK293
[6] = biological target: T4, Mannose-6-phosphate isomerase (Homo sapiens, UniProt P34949); test: MPI inhibition at elevated mannose 6-phosphate – biochemical, fluorescence intensity, high mannose 6-phosphate, primary screen (AID 1220)
T4 sequence (P34949 whole entry): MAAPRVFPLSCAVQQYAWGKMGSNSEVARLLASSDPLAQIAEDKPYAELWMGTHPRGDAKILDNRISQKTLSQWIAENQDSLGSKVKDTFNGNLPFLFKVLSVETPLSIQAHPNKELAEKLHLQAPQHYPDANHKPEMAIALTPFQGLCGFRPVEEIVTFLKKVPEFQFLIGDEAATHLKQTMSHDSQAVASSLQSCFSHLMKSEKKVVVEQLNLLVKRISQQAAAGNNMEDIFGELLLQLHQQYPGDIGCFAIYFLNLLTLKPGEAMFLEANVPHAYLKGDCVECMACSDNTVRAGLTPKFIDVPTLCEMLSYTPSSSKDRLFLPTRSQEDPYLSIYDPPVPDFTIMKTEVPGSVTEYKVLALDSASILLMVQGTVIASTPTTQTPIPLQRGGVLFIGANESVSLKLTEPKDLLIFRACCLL

Leucine aminopeptidase = biological target: T5, Leucine aminopeptidase (Plasmodium falciparum 3D7, UniProt Q8IL11); test: P. falciparum M17LAP inhibitors, primary screen, biochemical, fluorogenic H-Leu-NHMec substrate, 1536-well (AID 1619); assay type: functional
T5 sequence (Q8IL11 whole entry): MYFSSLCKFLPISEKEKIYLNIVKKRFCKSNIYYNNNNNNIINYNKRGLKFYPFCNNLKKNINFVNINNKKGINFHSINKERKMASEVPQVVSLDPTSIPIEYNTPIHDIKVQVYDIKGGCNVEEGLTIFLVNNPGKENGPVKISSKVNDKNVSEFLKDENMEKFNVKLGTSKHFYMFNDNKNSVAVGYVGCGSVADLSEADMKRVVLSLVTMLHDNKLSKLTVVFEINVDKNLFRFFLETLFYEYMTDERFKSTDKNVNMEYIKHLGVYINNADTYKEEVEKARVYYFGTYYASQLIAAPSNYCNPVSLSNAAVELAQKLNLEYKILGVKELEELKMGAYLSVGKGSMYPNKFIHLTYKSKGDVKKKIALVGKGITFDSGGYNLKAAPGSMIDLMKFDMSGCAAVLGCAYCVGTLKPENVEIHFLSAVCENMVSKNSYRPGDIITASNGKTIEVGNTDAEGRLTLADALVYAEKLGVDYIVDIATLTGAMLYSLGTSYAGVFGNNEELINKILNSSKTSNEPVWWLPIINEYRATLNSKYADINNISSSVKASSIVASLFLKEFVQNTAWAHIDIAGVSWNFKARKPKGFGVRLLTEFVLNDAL

Procathepsin L = Procathepsin L (Homo sapiens, UniProt P07711); test: CTSL1 protease inhibition – biochemical, QFRET, 1536-well, counter-screen for M1/M17 aminopeptidase inhibitor project, dose response (AID 2214)
Aspartyl aminopeptidase = biological target: T6, Aspartyl aminopeptidase (Plasmodium falciparum 3D7, UniProt Q8I2J3); test: Counterscreen for inhibitors of M1 and M17 aminopeptidases: QFRET-based biochemical high throughput dose response assay for inhibitors of the Plasmodium falciparum M18 Aspartyl Aminopeptidase (PFM18AAP). [Related PubChem assays: 1619 (Screening assay (M17LAP inhibitors).), 1445 (Screening assay (M1AAP inhibitors).)]
T6 sequence (Q8I2J3 whole entry): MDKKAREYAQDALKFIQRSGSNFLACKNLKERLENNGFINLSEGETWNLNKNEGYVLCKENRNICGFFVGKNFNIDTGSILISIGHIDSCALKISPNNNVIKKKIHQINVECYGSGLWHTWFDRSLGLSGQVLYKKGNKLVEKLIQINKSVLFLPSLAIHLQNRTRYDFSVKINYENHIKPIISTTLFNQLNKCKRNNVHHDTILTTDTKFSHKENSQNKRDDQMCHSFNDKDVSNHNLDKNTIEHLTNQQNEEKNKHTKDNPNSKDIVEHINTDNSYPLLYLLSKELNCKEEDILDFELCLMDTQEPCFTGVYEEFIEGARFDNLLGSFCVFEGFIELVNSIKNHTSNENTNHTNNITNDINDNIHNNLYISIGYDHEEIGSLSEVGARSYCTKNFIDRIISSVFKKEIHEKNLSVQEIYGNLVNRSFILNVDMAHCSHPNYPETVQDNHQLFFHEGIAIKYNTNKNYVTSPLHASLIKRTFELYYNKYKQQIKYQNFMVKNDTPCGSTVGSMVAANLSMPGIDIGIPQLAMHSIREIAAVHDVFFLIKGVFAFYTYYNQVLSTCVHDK

T3 sequence (Q92731 whole entry): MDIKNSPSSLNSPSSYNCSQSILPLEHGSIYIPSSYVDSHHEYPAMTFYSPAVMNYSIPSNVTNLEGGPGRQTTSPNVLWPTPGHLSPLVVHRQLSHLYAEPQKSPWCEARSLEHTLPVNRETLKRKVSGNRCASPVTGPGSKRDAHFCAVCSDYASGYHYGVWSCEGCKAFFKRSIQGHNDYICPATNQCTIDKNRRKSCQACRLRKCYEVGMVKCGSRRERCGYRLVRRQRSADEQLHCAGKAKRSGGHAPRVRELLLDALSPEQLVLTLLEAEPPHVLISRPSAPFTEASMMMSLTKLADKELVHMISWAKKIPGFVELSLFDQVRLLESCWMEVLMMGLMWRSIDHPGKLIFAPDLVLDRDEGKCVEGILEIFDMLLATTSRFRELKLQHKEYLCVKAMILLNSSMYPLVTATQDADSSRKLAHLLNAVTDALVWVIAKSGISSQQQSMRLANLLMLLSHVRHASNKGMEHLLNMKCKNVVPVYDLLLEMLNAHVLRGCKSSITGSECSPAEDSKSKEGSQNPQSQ
Sequence of NADPH oxidase 1 (Q9Y5S8 whole entry): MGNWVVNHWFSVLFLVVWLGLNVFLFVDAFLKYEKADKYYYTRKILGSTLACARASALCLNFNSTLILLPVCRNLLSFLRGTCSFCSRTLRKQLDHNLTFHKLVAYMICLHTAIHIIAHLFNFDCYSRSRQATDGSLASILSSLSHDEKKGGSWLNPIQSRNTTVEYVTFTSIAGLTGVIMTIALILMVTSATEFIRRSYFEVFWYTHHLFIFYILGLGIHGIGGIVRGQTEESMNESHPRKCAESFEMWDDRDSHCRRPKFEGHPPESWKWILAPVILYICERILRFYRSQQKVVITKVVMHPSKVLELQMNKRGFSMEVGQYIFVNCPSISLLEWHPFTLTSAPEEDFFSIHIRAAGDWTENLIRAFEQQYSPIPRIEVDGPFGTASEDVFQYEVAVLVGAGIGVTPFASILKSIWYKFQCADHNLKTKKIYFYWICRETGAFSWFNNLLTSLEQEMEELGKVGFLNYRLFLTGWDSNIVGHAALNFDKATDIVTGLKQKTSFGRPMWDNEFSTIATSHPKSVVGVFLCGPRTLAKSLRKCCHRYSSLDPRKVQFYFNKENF
Sequence of Protein Tat (P04608 whole entry): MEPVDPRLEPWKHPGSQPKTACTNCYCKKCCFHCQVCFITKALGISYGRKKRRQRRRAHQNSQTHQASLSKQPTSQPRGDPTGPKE
Sequence of Glutathione-S-transferase (Q26513 whole entry): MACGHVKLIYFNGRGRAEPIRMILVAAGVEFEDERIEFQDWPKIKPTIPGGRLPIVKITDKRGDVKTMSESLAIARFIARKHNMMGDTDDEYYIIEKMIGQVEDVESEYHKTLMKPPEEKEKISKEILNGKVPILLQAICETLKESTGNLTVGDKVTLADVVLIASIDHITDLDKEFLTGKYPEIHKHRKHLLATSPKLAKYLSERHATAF
Sequence of Procathepsin L (P07711 whole entry): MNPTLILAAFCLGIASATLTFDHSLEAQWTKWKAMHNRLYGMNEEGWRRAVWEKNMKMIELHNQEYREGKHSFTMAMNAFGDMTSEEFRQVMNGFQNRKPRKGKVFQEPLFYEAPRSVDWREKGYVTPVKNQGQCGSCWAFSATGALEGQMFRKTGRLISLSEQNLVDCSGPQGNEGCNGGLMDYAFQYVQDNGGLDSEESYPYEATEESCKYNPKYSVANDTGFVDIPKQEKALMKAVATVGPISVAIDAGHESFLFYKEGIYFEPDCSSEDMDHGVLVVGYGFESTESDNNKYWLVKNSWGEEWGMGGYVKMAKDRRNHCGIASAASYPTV
Sequence of Nonstructural protein 1 (Q194T2 whole entry): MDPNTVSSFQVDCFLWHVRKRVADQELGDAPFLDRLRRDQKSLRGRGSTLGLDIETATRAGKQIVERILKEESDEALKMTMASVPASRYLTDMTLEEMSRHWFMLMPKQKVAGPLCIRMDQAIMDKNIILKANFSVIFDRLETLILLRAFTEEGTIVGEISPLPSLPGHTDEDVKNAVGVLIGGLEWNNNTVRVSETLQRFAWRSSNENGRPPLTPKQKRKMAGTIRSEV

For `Cc1cc(-c2nnc3sc(-c4ccc(Cl)cc4Cl)nn23)n[nH]1`, the EC50 (Estrogen receptor) was 15.4 µM (active).
With `CCCn1cnc2cc(NCc3ccccn3)ccc21` the IC50 [1] was > 100 µM (active), the IC50 (Nonstructural protein 1) was > 100 µM (active) and the IC50 (cells) was > 67.5 µM (inactive). For the same compound, the IC50 (Protein Tat) was > 100 µM (active) and the IC50 [2] was > 67.5 µM (inactive).
With `O=C(Oc1ccccc1[N+](=O)[O-])c1sc2ccccc2c1Cl` the IC50 (NADPH oxidase 1) was > 17 µM (not active).
For `Cc1ccc(-c2nnc(CSc3nc4cc5c(cc4cc3C)OCO5)o2)cc1`, the IC50 (Estrogen receptor beta [3]) was 0.0359 µM (not active) and the IC50 (Estrogen receptor beta [4]) was > 50 µM (not active).
In the case of `O=C(Cn1cnc2c(nnn2Cc2ccc(F)cc2)c1=O)N1CCCc2ccccc21`, the IC50 [5] is reported as 1.3 µM (active).
For `C=CCn1c(SCC(=O)N2N=C(c3ccco3)CC2c2ccco2)nnc1-c1ccncc1` (centres undefined), the IC50 [6] was > 50 µM (not active).
With `Cc1ccc(NC(=O)CSc2nnc(C)c(=O)[nH]2)cc1C` the IC50 (Leucine aminopeptidase) was 3.51 µM (active), the IC50 (Procathepsin L) was > 59.6 µM (not active) and the IC50 (Aspartyl aminopeptidase) was > 73.5 µM (not active).
